The record followed here is patent US10457707B2, “Substituted urea depsipeptide analogs as activators of the CLPP endopeptidase” (priority 2015, dated 2019).

SMILES strings stand for the structures. Converted amounts (≈) assume the structure as drawn. Read-outs that look alike come from different tables or passages of the source. *1 amine or outer side, *2 acyl side, *3 side chain or, on linkers, in order; H or OH if unused. Where a SMILES comes first, the peptide text is derived from it. Bridges are numbered along the chain shown (N, C = ends). [ ]: non-standard residue; d: D form. The star is where a group is joined. Phe(3,5-F2) = N[C@@H](Cc1cc(F)cc(F)c1)C(=O)O; NMepT = CN[C@H](C(=O)O)[C@@H](C)OP(=O)(O)O; NH(4-OCF3-phenyl) = FC(F)(F)Oc1ccc(N*)cc1; Morpholine(3S-CO) = O=C(O)[C@@H]1COCCN1; Pro(4S-Me) = C[C@@H]1CN[C@H](C(=O)O)C1; Pro(4R-Me) = C[C@H]1CN[C@H](C(=O)O)C1; NMeaThr = CN[C@H](C(=O)O)[C@H](C)O; NH(4-Et-phenyl) = CCc1ccc(N*)cc1; NMeT = CN[C@H](C(=O)O)[C@@H](C)O; NH(4-Me-phenyl) = Cc1ccc(N*)cc1; aThr = C[C@H](O)[C@H](N)C(=O)O; CO = O=C([*:1])[*:2]

The subject of data set [1] is Staphylococcus aureus, NRS70. Kind of data set: Minimal inhibitory concentration assay (microbroth dilution). The class given is cell-based. The gist of the method: (§1)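 Compound is serially diluted two-fold in the appropriate broth, and bacterial inoculum at about 10^5 cfu/mL is added so the highest final concentration is 200 μM. Plates stay overnight at 37 °C under aerobic conditions before growth is scored by eye.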

In data set [2] the test system is Bacillus subtilis, ATCC 23857. The description is as above. Format: cell-based. An outline of the steps:
as §1

The subject of data set [3] is Staphylococcus aureus, ATCC 29213. Described as above. The class given is cell-based. The settings on record: ATCC29213, read-out: Minimal Inhibitory Concentrations S. aureus ATCC 29213. The gist of the method: as §1
Data set [4] can be described thus: Cytotoxicity assay (CellTiter-Glo cell viability, 72 hours). The class given is cell-based. The settings on record: African green monkey. The gist of the method: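 Viability measured by CellTiter-Glo luminescence after 72-hour compound exposure (serial dilutions, DMSO control) of Vero monolayers seeded at 5000 cells/well in 10% FBS DMEM. IC50 values are the range of two biologically independent experiments, each run in duplicate.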
On the technique in general: ATP-based viability assays read luminescence as a measure of living cells.

The next data set deals with T1, Sa-ClpP (Staphylococcus aureus, UniProt Q2G036).
T1 construct: made in house; host or cells: E. coli BL21(DE3)
T1 sequence (Q2G036 1-195): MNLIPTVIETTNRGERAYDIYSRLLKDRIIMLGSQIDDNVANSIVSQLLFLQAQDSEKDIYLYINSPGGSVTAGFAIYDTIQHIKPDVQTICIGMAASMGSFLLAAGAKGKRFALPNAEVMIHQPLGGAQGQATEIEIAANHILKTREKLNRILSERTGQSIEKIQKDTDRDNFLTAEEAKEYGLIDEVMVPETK
Kind of data set: ADEP displacement fluorescence polarization assay (FP probe ADEP 2591). The class given is binding. The gist of the method:
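Probe displacement was measured in mP after compounds sat 120 min at room temperature with pre-equilibrated (1 h) Sa-ClpP (15 μM) and ADEP 2591 FP probe (50 nM) in pH 8.0 Tris-HCl with 2% DMSO. Data were scaled between DMSO and 200 μM ADEP 2378 and fit by variable-slope log-inhibitor regression.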
In general terms: Fluorescence polarisation rises when a labelled molecule tumbles more slowly, as on binding a larger partner.

Setting [5] is: Staphylococcus aureus, NRS70, read-out: Minimal Inhibitory Concentrations S. aureus NRS70.
Setting [6] is: Bacillus subtilis, ATCC23857, read-out: Minimal Inhibitory Concentrations B. subtilis ATCC 23857.
The mark [7] stands for this setting: Vero cells, 72 hours, growth inhibition, read-out: Cytotoxicity IC50.
The mark [8] stands for this setting: Staphylococcus aureus, NRS70; read-out: Minimal Inhibitory Concentrations S. aureus NRS70.
Setting [9] is: Bacillus subtilis, ATCC23857; read-out: Minimal Inhibitory Concentrations B. subtilis ATCC 23857.
Where [10] appears, read: displacement of FP probe ADEP 2591 from Sa-ClpP, read-out: ADEP Displacement IC50.

For orientation: IC50 means the concentration at which inhibition is half-maximal. Take `Cc1ccc(NC(=O)N[C@@H](Cc2cc(F)cc(F)c2)C(=O)N[C@@H]2C(=O)N3CCC[C@H]3C(=O)N(C)[C@@H]([C@@H](C)O)C(=O)N[C@@H](C)C(=O)N3C[C@H](C)C[C@H]3C(=O)O[C@H]2C)cc1` [Compound 38, (S)-3-(3,5-difluorophenyl)-N-((2R,6S,9S,11aS,17S,18S,20aS)-9-((R)-1-hydroxyethyl)-2,6,10,18-tetramethyl-5,8,11,16,20-pentaoxohexadecahydro-1H,5H,16H-dipyrrolo[2,1-c:2′,1′-l][1]oxa[4,7,10,13]tetraazacyclohexadecin-17-yl)-2-(3-(p-tolyl)ureido)propanamide] ({NH(4-Me-phenyl)-CO}-[Phe(3,5-F2)][aThr]P[NMeT]A[Pro(4R-Me)]; ester 2-C): the MIC in data set [1] (setting [5]), in data set [2] (setting [6]) and in data set [3] was 0.05 µM (≈ 0.0406 µg/mL) in each case. In data set [4] (setting [7]), the IC50 at 72 h is 46.1 ± 5.5 µM. Besides, the 50% inhibitory concentration (IC50) on Sa-ClpP is 6.52 ± 0.3 µM.
With `C[C@@H]1C[C@H]2C(=O)O[C@@H](C)[C@H](NC(=O)[C@H](Cc3cc(F)cc(F)c3)NC(=O)Nc3ccc(OC(F)(F)F)cc3)C(=O)N3CCC[C@H]3C(=O)N(C)[C@@H]([C@@H](C)O)C(=O)N[C@@H](C)C(=O)N2C1` [Compound 41, (S)-3-(3,5-difluorophenyl)-N-((2R,6S,9S,11aS,17S,18S,20aS)-9-((R)-1-hydroxyethyl)-2,6,10,18-tetramethyl-5,8,11,16,20-pentaoxohexadecahydro-1H,5H,16H-dipyrrolo[2,1-c:2′,1′-l][1]oxa[4,7,10,13]tetraazacyclohexadecin-17-yl)-2-(3-(4-(trifluoromethoxy)phenyl)ureido)propanamide] ({NH(4-OCF3-phenyl)-CO}-[Phe(3,5-F2)][aThr]P[NMeT]A[Pro(4R-Me)]; ester 2-C), the figures for the MIC in data set [1] (setting [8]), in data set [2] (setting [9]) and in data set [3] were 0.01 µM (≈ 0.00882 µg/mL), 0.01 µM (≈ 0.00882 µg/mL) and 0.02 µM (≈ 0.0176 µg/mL), respectively. Besides, the IC50 at 72 h in data set [4] stood at 23.9 ± 2 µM. Besides, on Sa-ClpP, the IC50 was found to be 7.53 ± 0.2 µM.
Take `CCc1ccc(NC(=O)N[C@@H](Cc2cc(F)cc(F)c2)C(=O)N[C@@H]2C(=O)N3CCC[C@H]3C(=O)N(C)[C@@H]([C@@H](C)O)C(=O)N[C@@H](C)C(=O)N3C[C@H](C)C[C@H]3C(=O)O[C@H]2C)cc1` [Compound 42, (S)-3-(3,5-difluorophenyl)-2-(3-(4-ethylphenyl)ureido)-N-((2R,6S,9S,11aS,17S,18S,20aS)-9-((R)-1-hydroxyethyl)-2,6,10,18-tetramethyl-5,8,11,16,20-pentaoxohexadecahydro-1H,5H,16H-dipyrrolo[2,1-c:2′,1′-l][1]oxa[4,7,10,13]tetraazacyclohexadecin-17-yl)propanamide] ({NH(4-Et-phenyl)-CO}-[Phe(3,5-F2)][aThr]P[NMeT]A[Pro(4R-Me)]; ester 2-C): the MIC in data set [1] (setting [8]) amounted to 0.02 µM (≈ 0.0165 µg/mL); in data set [2] (setting [9]) it was 0.01 µM (≈ 0.00826 µg/mL); in data set [3], 0.05 µM (≈ 0.0413 µg/mL). Further, in data set [4], half-maximal inhibition (IC50 at 72 h) was put at 24.9 ± 2.6 µM. Moreover, on Sa-ClpP, the IC50 was 7.12 ± 0.2 µM.
`Cc1ccc(NC(=O)N[C@@H](Cc2cc(F)cc(F)c2)C(=O)N[C@@H]2C(=O)N3CCC[C@H]3C(=O)N(C)[C@@H]([C@@H](C)OP(=O)(O)O)C(=O)N[C@@H](C)C(=O)N3C[C@@H](C)C[C@H]3C(=O)O[C@H]2C)cc1` [Compound 188, (R)-1-((2S,6S,9S,11aS,17S,18S,20aS)-17-((S)-3-(3,5-difluorophenyl)-2-(3-(p-tolyl)ureido)propanamido)-2,6,10,18-tetramethyl-5,8,11,16,20-pentaoxohexadecahydro-1H,5H,16H-dipyrrolo[2,1-c:2′,1′-l][1]oxa[4,7,10,13]tetraazacyclohexadecin-9-yl)ethyl dihydrogen phosphate] ({NH(4-Me-phenyl)-CO}-[Phe(3,5-F2)][aThr]P[NMepT]A[Pro(4S-Me)]; ester 2-C): the MIC in data set [1] (setting [5]) amounted to 25 µM; in data set [2] (setting [6]), 13 µM; in data set [3] it was 25 µM. Besides, the IC50 at 72 h in data set [4] (setting [7]) is more than 100 µM. At Sa-ClpP, this compound gave an IC50 of 13.7 ± 0.6 µM.
For `C[C@@H]1C[C@H]2C(=O)OC[C@H](NC(=O)[C@H](Cc3ccccc3)NC(=O)Nc3ccc4c(c3)OCO4)C(=O)N3CCC[C@H]3C(=O)N3CCCC[C@H]3C(=O)N[C@@H](C)C(=O)N2C1` [Compound 194, (S)-2-(3-(benzo[d][1,3]dioxol-5-yl)ureido)-N-((2R,6S,8aS,14aS,20S,23aS)-2,6-dimethyl-5,8,14,19,23-pentaoxooctadecahydro-1H,5H,14H,19H-pyrido[2,1-i]dipyrrolo[2,1-c:2′,1′-l][1]oxa[4,7,10,13]tetraazacyclohexadecin-20-yl)-3-phenylpropanamide], the MIC was found to be 0.39 µM (≈ 0.307 µg/mL) in data set [1] (setting [8]), 0.39 µM (≈ 0.307 µg/mL) in data set [2] (setting [9]) and 1.56 µM (≈ 1.23 µg/mL) in data set [3]. In addition, the half-maximal inhibitory concentration (IC50) at 72 h in data set [4] was more than 100 µM. For the same compound, the half-inhibitory concentration (IC50) on Sa-ClpP was 8 ± 0.6 µM.
Regarding `C[C@@H]1C[C@H]2C(=O)OC[C@H](NC(=O)[C@H](Cc3cc(F)cc(F)c3)NC(=O)Nc3ccc4c(c3)OCO4)C(=O)N3CCC[C@H]3C(=O)N3CCCC[C@H]3C(=O)N[C@@H](C)C(=O)N2C1` [Compound 195, (S)-2-(3-(benzo[d][1,3]dioxol-5-yl)ureido)-3-(3,5-difluorophenyl)-N-((2R,6S,8aS,14aS,20S,23aS)-2,6-dimethyl-5,8,14,19,23-pentaoxooctadecahydro-1H,5H,14H,19H-pyrido[2,1-i]dipyrrolo[2,1-c:2′,1′-l][1]oxa[4,7,10,13]tetraazacyclohexadecin-20-yl)propanamide], the MIC in data set [1] (setting [8]) was found to be 0.6 µM (≈ 0.494 µg/mL); in data set [2] (setting [9]), 0.3 µM (≈ 0.247 µg/mL); in data set [3], 0.6 µM (≈ 0.494 µg/mL). The same compound returned a half-maximal inhibitory concentration (IC50) at 72 h in data set [4] of 84.1 ± 8.3 µM. Further, on Sa-ClpP, the IC50 amounted to 5.8 ± 0.2 µM.
`C[C@H]1C[C@H]2C(=O)O[C@@H](C)[C@H](NC(=O)[C@H](Cc3cc(F)cc(F)c3)NC(=O)Nc3ccc(OC(F)(F)F)cc3)C(=O)N3CCC[C@H]3C(=O)N3CCOC[C@H]3C(=O)N[C@@H](C)C(=O)N2C1` [Compound 201, (S)-3-(3,5-difluorophenyl)-2-(3-(4-(trifluoromethoxy)phenyl)ureido)-N-((6aS,12S,13S,15aS,17S,21S,23aS)-13,17,21-trimethyl-6,11,15,20,23-pentaoxooctadecahydro-6H,11H,15H-[1,4]oxazino[3,4-i]dipyrrolo[2,1-c:2′,1′-l][1]oxa[4,7,10,13]tetraazacyclohexadecin-12-yl)propanamide] ({NH(4-OCF3-phenyl)-CO}-[Phe(3,5-F2)][aThr]P[Morpholine(3S-CO)]A[Pro(4S-Me)]; ester 2-C): the MIC amounted to 0.024 µM (≈ 0.0211 µg/mL) in data set [1] (setting [8]), 0.024 µM (≈ 0.0211 µg/mL) in data set [2] (setting [9]) and 0.049 µM (≈ 0.0431 µg/mL) in data set [3]. In data set [4], the concentration for half-maximal inhibition (IC50) at 72 h stood at 26 ± 2.6 µM. In addition, the IC50 on Sa-ClpP (setting [10]) turned out to be 6.1 ± 0.4 µM.
Take `Cc1ccc(NC(=O)N[C@@H](Cc2cc(F)cc(F)c2)C(=O)N[C@@H]2C(=O)N3CCC[C@H]3C(=O)N(C)[C@@H]([C@H](C)O)C(=O)N[C@@H](C)C(=O)N3C[C@@H](C)C[C@H]3C(=O)O[C@H]2C)cc1` [Compound 202, (S)-3-(3,5-difluorophenyl)-N-((2S,6S,9S,11aS,17S,18S,20aS)-9-((S)-1-hydroxyethyl)-2,6,10,18-tetramethyl-5,8,11,16,20-pentaoxohexadecahydro-1H,5H,16H-dipyrrolo[2,1-c:2′,1′-L][1]oxa[4,7,10,13]tetraazacyclohexadecin-17-yl)-2-(3-(p-tolyl)ureido)propanamide] ({NH(4-Me-phenyl)-CO}-[Phe(3,5-F2)][aThr]P[NMeaThr]A[Pro(4S-Me)]; ester 2-C): the MIC in data set [1] (setting [5]) stood at 0.098 µM (≈ 0.0796 µg/mL); in data set [2] (setting [6]), 0.195 µM (≈ 0.158 µg/mL); in data set [3] it was 0.195 µM (≈ 0.158 µg/mL). In addition, the IC50 at 72 h in data set [4] (setting [7]) was 55.7 ± 3.6 µM. For the same compound, the IC50 at Sa-ClpP (setting [10]) came out at 6.6 ± 0.4 µM.
